Measured values as given in patent publication US20070219243A1, “Method for improving the pharmacokinetics of HIV integrase inhibitors” (priority 2005, published 2007).
Entries after “also recorded” stand apart in the source; their conditions may differ.

Assays:
[1] = Example 2: safety in subjects infected with HIV-1; format: in vivo, human
Procedure: Safety: Adverse events, vital signs, electrocardiogram, ophthalmologic examination, and clinical laboratory tests were evaluated for safety. Safety: The proportion of subjects with adverse events was summarized by treatment, system organ class and preferred term for treatment-emergent adverse events, treatment-related adverse events, serious adverse events, and adverse events leading to study drug discontinuation. Adverse events were coded using the Medical Dictionary for Regulatory Activities (MedDRA®) version 8.1. […] Laboratory results were expressed on the original measurement scale and in terms of the toxicity grade. Changes from baseline in quantitative laboratory tests were summarized by visit.

[2] = human, in vivo
Procedure: Safety, tolerability, pharmacokinetics, and efficacy were monitored through Day 21 after dosing. The active treatments in the 5 cohorts were as follows: […] The duration of the study was 21 days, with 10 days of treatment and 11 days of follow-up. […] Matching placebo was administered orally under fed conditions. For Cohort 5 only, 100 mg RTV capsules were coadministered orally under fed conditions. […] Pharmacokinetics: The pharmacokinetic parameters of Compound 1 in plasma and peripheral blood mononuclear cells were summarized using descriptive statistics.

[3] = Example 1: multiple-dose safety of Compound 1 alone and with RTV; format: in vivo, human
Procedure: The single-dose and multiple-dose pharmacokinetics of Compound 1 were also determined. The multiple-dose safety of Compound 1 administered alone and with RTV was also determined. Safety: Safety was evaluated by assessment of clinical laboratory tests at baseline and at various time points during the study; periodic physical examinations, including vital signs; and documentation of adverse events throughout the study. Safety: No statistical inference was performed for safety data in this pharmacokinetic study.

[4] = in vivo
Procedure: Pharmacokinetic (PK) blood draws were performed on days 7, 17, and 27.

[5] = system: HIV-1; assay: Example 2: exposure-response (Emax model) and inhibitory quotient; format: in vivo; conditions: simple Emax model on Ctau
[6] = Example 3: pharmacokinetics of Compound 1 and RTV at a range of RTV doses; conditions: for Ctau / AUC / Cmax / half-life: Compound 1 in plasma, mean (CV %); for IQ: based on protein binding-adjusted IC50 in PBMCs; for AUC / Cmax / half-life: both, human, plasma, oral; for AUC: AUCtau
[7] = Example 7: safety of single 400 mg dose; format: in vivo, human; conditions: single oral 400 mg dose, fasted and fed, healthy Japanese males
Procedure: The subjects were admitted to the medical institution in the afternoon on the day before administration (“Day-1”). […] The subjects were discharged the day after administration (“Day 2”). Thus, the subjects were hospitalized for a total of three days. Follow up assessment for safety was performed 6 to 8 days after administration (“Days 7 to 9”).

[8] = Example 5: drug-drug interaction of zidovudine and Compound 1/r; conditions: human, in vivo
Source text: Zidovudine is a NRTI used in HIV patients.
PK parameters were estimated using WinNonlin™ 5.0.1 (Pharsight Corporation, Mountain View, Calif., USA).

[9] = target: HIV-1 integrase (Human immunodeficiency virus type 1 group M subtype B, UniProt P04585); conditions: after 10 days of monotherapy; through Day 21
[10] = Example 1: pharmacokinetics of Compound 1 alone and with RTV in healthy subjects; format: in vivo, human; conditions: for Ctau / Cmax / half-life / AUC: Compound 1 in plasma; for AUC: N = 12, read-out: AUC (AUCtau)
Source text: The study was an open-label, fixed-sequence, crossover, pharmacokinetic study with 12 subjects. The subjects were healthy males and non-pregnant, nonlactating females between 18 and 45 years of age, inclusive. The duration of the study was 20 days, with Period 1 of Days 1 to 10 and Period 2 of days 11 to 20. Follow-up contact was on day 27.

[11] = 200 mg of Compound 1 twice-daily, 6 subjects
[12] = healthy subjects, Compound 1 100 mg twice daily alone, or with RTV 100 mg twice daily
[13] = Compound 1 125 mg + 20 mg RTV QD
[14] = Compound 1 125 mg + 50 mg RTV QD
[15] = Compound 1 125 mg + 100 mg RTV QD
[16] = Compound 1 125 mg + 200 mg RTV QD
[17] = both sexes, human, plasma, oral, 100 mg, Day 10, Compound 1 100 mg twice daily alone, mean (% CV)
[18] = both sexes, human, plasma, oral, Day 11, Compound 1 100 mg twice daily + single dose RTV 100 mg, mean
[19] = both sexes, human, plasma, oral, Day 20, Compound 1 100 mg + RTV 100 mg twice daily, mean

COc1cc2c(cc1Cc1cccc(Cl)c1F)c(=O)c(C(=O)O)cn2[C@H](CO)C(C)C [Compound 1, 6-(3-chloro-2-fluorobenzyl)-1-[(2S)-1-hydroxy-3-methylbutan-2-yl]-7-methoxy-4-oxo-1,4-dihydroquinoline-3-carboxylic acid]
Subjects with treatment-emergent Grade 3 or 4 laboratory abnormalities ([1]; 50 mg of Compound 1+RTV once-daily, 6 subjects): 1 subject
Subjects with treatment-related fatigue [1, 11]: 2 subjects
Subjects with treatment-related nausea [1, 11]: 2 subjects
Subjects with treatment-emergent Grade 3 or 4 laboratory abnormalities ([1]; 400 mg of Compound 1 twice-daily, 6 subjects): 1 subject
Tolerability ([1]; all dose levels, 10 days, HIV-1 infected subjects): generally well tolerated
Dose proportionality of pharmacokinetics [2]: did not exhibit dose-proportional increases
Subjects with treatment-emergent AEs considered related to study drugs [3, 12]: 2 of 12
Subjects with treatment-emergent adverse events [3, 12]: 4 of 12
Tolerability ([3]; oral, 100 mg twice daily, Compound 1 up to 20 days, with RTV 100 mg twice daily up to 10 days): well tolerated
PK (Cmax, AUCtau, Ctau) during co-administration vs alone [4]: unaffected
Emax [5]: 2.32 log10 copies/mL reduction from baseline
Ctau [6, 13]: 73.8 (60.2) ng/ml
Ctau [6, 14]: 251 (27.7) ng/ml
Ctau [6, 15]: 380 (39.9) ng/ml
Ctau [6, 16]: 410 (26.0) ng/ml
IQ [6, 13]: 10.3
IQ [6, 14]: 35.0
IQ [6, 15]: 53.0
IQ [6, 16]: 57.2
AUC ([6]; Compound 1 125 mg + 20 mg RTV QD, after a meal): 10200 ng·h/mL
AUC [6, 14]: 15800 ng·h/mL
AUC [6, 15]: 20300 ng·h/mL
AUC [6, 16]: 20600 ng·h/mL
Cmax [6, 13]: 1370 ng/mL
Cmax [6, 14]: 1560 ng/mL
Cmax [6, 15]: 1830 ng/mL
Cmax [6, 16]: 2030 ng/mL
half-life [6, 13]: 4.34 h
half-life [6, 14]: 9.52 h
half-life [6, 15]: 11.5 h
half-life [6, 16]: 14.3 h
Safety and tolerability [7]: safe and well tolerated
Half-life (48 hour PK profile) [8]: supporting once daily dosing
HIV-1 integrase mutations corresponding to Compound 1 resistance [9]: no subject developed HIV-1 integrase mutations; also recorded: No Compound 1 resistance mutations were detected
mean steady-state exposure (AUCtau, Day 10) lower compared with mean exposure (AUCinf) after a single dose (Day 1) ([10]; Compound 1 100 mg alone, indicating autoinduction of metabolism): approximately 20%
Ctau ([10]; end of dosing interval, Day 1, Compound 1 100 mg alone, mean (% CV)): 19.2 (52.5) ng/mL
Ctau ([10]; Day 10, Compound 1 100 mg twice daily alone, mean (% CV)): 12.4 (63.7) ng/mL
Ctau ([10]; Day 11, Compound 1 100 mg twice daily + single dose RTV 100 mg, mean): 543.3 ng/mL
Ctau ([10]; Day 20, Compound 1 100 mg + RTV 100 mg twice daily, mean): 1035.6 ng/mL
Cmax ([10]; both sexes, human, plasma, oral, 100 mg, Day 1, single dose Compound 1 100 mg alone, mean (% CV)): 200 ng/mL
half-life ([10]; both sexes, human, plasma, oral, 100 mg, Day 1, single dose Compound 1 100 mg alone, median (min, max)): 3.1 h
half-life ([10]; both sexes, human, plasma, oral, 100 mg, Day 10, Compound 1 100 mg twice daily alone, steady state, median (min, max)): 3.5 h
Cmax [10, 17]: 164 ng/mL
AUC [10, 17]: 719 ng·h/mL
AUC(0-inf) ([10]; both sexes, human, plasma, oral, 100 mg, read-out: AUC (AUCinf)): 908 ng·h/mL
Cmax [10, 18]: 795 ng/mL
AUC [10, 18]: 6170 ng·h/mL
half-life ([10]; both sexes, human, plasma, oral, Day 11, Compound 1 100 mg twice daily + single dose RTV 100 mg, median): 18.2 h
half-life ([10]; both sexes, human, plasma, oral, Day 20, Compound 1 100 mg + RTV 100 mg twice daily, steady state, median): 9.5 h
Cmax [10, 19]: 1830 ng/mL
AUC [10, 19]: 14300 ng·h/mL
